Data taken from ChEMBL document CHEMBL5291721, “A preclinical secondary pharmacology resource illuminates target-adverse drug reaction associations of marketed drugs” (Nat Commun, 2023).

What was measured:
Adenosine receptor A2a = Adenosine receptor A2a (Homo sapiens, UniProt P29274)
[1] = biological target: Beta-1 adrenergic receptor (Homo sapiens, UniProt P08588); assay type: functional
[2] = biological target: T1, Type-1 angiotensin II receptor (Homo sapiens, UniProt P30556)
T1 sequence (P30556 whole entry): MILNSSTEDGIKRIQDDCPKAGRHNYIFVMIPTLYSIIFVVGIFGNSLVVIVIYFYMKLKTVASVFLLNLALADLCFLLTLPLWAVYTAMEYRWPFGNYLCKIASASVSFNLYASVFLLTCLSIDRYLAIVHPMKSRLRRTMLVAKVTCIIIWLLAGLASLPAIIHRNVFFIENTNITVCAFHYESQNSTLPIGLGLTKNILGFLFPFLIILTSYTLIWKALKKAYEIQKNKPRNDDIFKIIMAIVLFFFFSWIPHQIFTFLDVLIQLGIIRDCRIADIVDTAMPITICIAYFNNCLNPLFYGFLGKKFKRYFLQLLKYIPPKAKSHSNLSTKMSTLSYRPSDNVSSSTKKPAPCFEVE

[3] = biological target: T2, Cholecystokinin receptor type A (Homo sapiens, UniProt P32238)
T2 sequence (P32238 whole entry): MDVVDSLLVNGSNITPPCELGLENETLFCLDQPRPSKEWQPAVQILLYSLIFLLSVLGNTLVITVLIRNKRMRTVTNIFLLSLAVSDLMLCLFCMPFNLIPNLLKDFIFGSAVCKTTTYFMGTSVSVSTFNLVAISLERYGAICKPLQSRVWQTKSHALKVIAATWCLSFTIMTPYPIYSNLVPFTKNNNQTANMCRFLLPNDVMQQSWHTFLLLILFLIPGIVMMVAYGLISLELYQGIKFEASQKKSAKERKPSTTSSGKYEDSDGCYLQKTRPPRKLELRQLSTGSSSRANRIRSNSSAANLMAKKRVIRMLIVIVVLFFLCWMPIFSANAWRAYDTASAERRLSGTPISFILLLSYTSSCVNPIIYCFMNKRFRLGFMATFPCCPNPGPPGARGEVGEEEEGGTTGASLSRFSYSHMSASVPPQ

[4] = biological target: Growth hormone secretagogue receptor type 1 (Homo sapiens, UniProt Q92847)
[5] = biological target: Glutamate receptor ionotropic, NMDA 1 (Rattus norvegicus, UniProt P35439)
Histamine H2 receptor = Histamine H2 receptor (Homo sapiens, UniProt P25021); assay type: functional, cell-based
[6] = biological target: T3, 5-hydroxytryptamine receptor 1A (Homo sapiens, UniProt P08908); assay type: functional, cell-based
T3 sequence (P08908 whole entry): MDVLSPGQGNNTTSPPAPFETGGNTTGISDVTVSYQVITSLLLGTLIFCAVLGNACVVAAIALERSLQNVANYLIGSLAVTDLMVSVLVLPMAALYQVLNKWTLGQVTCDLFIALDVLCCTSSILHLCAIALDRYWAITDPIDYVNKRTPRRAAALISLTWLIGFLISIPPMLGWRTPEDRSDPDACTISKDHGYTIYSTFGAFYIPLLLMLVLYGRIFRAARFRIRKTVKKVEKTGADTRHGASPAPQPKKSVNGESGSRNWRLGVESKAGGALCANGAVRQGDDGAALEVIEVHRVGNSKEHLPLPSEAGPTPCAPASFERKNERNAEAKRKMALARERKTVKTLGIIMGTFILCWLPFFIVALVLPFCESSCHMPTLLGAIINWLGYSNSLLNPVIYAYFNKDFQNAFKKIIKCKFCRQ

[7] = biological target: 5-hydroxytryptamine receptor 2A (Homo sapiens, UniProt P28223); assay type: functional, cell-based
[8] = biological target: 5-hydroxytryptamine receptor 2B (Homo sapiens, UniProt P41595); assay type: functional, cell-based
[9] = biological target: Delta-type opioid receptor (Homo sapiens, UniProt P41143)
Thromboxane A2 receptor = biological target: T4, Thromboxane A2 receptor (Homo sapiens, UniProt P21731)
T4 sequence (P21731 whole entry): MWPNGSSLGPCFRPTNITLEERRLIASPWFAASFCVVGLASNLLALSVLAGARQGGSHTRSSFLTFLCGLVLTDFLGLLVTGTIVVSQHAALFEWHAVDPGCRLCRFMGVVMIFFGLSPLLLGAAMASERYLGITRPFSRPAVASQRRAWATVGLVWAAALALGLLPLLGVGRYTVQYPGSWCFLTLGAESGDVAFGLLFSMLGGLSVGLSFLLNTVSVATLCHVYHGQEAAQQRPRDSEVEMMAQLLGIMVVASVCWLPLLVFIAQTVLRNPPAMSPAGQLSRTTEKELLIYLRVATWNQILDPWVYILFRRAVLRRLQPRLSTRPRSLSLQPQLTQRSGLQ

[10] = biological target: Sodium-dependent serotonin transporter (Homo sapiens, UniProt P31645)
[11] = biological target: cGMP-inhibited 3',5'-cyclic phosphodiesterase 3A (Homo sapiens, UniProt Q14432); assay type: functional
Note: assay procedure not described here.

Growth hormone secretagogue receptor type 1, sequence (Q92847 whole entry): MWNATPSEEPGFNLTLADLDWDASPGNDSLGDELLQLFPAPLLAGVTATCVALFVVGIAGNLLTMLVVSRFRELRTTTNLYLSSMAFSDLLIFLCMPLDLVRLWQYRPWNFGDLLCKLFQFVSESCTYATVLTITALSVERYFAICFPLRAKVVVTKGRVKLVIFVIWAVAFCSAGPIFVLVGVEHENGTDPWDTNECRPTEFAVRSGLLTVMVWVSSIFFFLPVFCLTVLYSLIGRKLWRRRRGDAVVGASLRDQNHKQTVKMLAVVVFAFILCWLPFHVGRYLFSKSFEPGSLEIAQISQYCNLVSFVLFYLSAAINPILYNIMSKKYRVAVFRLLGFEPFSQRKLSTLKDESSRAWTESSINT
5-hydroxytryptamine receptor 2A, sequence (P28223 whole entry): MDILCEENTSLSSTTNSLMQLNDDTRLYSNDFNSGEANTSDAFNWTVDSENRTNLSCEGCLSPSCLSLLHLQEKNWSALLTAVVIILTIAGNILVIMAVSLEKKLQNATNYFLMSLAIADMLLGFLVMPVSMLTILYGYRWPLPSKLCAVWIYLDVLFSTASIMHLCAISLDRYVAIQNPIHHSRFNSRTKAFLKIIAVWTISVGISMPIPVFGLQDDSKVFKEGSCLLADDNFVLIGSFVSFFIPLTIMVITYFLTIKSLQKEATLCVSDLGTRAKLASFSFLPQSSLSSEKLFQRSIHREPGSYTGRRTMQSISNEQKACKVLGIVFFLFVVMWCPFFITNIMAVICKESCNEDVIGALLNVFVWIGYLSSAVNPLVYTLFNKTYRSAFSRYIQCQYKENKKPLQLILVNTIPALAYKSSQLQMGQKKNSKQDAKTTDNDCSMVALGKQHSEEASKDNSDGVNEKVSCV
Beta-1 adrenergic receptor, sequence (P08588 whole entry): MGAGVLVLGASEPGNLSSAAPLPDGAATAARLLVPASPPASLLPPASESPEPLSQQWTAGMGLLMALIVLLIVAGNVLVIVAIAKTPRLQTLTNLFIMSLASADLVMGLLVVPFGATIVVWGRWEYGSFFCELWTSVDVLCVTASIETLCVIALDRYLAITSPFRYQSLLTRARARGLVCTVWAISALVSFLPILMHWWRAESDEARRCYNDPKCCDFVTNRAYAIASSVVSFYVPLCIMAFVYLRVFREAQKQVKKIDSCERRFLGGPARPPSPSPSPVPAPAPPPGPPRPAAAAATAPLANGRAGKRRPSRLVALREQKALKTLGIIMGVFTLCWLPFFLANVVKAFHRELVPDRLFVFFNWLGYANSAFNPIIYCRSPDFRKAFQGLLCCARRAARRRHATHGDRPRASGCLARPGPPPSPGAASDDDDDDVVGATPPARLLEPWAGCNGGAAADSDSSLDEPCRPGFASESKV
Histamine H2 receptor, sequence (P25021 whole entry): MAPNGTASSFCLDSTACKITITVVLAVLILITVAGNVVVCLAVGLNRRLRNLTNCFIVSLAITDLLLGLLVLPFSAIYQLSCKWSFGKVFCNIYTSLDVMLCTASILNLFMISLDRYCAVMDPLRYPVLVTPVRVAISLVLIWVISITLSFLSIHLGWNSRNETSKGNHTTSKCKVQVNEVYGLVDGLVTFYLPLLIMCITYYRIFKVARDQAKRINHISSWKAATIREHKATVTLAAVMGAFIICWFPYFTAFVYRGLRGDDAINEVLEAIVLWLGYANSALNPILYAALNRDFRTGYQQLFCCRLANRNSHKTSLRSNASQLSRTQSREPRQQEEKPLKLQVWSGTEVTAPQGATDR
cGMP-inhibited 3',5'-cyclic phosphodiesterase 3A, sequence (Q14432 whole entry): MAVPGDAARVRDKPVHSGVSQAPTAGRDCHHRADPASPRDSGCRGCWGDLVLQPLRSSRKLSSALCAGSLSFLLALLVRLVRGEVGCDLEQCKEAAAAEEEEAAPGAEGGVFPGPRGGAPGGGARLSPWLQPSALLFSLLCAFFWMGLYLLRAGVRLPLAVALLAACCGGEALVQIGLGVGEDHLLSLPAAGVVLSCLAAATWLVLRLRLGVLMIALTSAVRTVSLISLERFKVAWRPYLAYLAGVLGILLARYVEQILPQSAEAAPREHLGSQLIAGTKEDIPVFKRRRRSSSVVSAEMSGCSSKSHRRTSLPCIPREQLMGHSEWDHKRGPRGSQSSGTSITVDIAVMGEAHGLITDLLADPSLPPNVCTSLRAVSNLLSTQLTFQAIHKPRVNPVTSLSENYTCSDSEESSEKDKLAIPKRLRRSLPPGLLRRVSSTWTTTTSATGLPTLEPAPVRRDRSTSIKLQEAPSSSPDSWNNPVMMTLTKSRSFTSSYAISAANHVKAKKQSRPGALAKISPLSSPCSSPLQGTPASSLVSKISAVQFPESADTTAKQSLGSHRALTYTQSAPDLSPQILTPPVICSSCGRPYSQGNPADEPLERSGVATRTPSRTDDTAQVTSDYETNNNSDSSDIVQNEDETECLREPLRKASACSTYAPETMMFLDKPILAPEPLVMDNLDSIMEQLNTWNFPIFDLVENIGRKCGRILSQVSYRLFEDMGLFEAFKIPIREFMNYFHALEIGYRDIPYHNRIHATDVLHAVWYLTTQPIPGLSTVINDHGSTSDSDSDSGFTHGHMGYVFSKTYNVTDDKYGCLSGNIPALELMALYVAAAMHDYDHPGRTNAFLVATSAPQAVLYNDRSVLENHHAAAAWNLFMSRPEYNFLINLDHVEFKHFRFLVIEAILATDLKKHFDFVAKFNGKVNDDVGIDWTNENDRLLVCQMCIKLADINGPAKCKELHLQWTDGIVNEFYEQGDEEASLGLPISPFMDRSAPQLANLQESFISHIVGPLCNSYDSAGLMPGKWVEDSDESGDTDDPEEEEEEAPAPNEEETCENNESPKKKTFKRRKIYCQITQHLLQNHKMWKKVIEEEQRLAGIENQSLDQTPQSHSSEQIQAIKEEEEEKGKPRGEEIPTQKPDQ
5-hydroxytryptamine receptor 2B, sequence (P41595 whole entry): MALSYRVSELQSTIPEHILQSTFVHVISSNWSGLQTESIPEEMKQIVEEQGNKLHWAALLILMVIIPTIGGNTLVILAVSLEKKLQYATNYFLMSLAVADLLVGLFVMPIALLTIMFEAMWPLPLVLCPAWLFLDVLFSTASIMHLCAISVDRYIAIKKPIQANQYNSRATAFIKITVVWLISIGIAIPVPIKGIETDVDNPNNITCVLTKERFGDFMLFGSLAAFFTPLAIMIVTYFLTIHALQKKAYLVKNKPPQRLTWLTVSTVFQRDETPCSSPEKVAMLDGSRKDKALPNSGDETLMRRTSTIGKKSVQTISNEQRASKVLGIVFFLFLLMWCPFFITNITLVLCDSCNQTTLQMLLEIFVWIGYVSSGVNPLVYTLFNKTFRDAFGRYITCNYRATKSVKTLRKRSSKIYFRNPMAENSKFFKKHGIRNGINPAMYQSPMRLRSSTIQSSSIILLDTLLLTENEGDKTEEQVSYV
Sodium-dependent serotonin transporter, sequence (P31645 whole entry): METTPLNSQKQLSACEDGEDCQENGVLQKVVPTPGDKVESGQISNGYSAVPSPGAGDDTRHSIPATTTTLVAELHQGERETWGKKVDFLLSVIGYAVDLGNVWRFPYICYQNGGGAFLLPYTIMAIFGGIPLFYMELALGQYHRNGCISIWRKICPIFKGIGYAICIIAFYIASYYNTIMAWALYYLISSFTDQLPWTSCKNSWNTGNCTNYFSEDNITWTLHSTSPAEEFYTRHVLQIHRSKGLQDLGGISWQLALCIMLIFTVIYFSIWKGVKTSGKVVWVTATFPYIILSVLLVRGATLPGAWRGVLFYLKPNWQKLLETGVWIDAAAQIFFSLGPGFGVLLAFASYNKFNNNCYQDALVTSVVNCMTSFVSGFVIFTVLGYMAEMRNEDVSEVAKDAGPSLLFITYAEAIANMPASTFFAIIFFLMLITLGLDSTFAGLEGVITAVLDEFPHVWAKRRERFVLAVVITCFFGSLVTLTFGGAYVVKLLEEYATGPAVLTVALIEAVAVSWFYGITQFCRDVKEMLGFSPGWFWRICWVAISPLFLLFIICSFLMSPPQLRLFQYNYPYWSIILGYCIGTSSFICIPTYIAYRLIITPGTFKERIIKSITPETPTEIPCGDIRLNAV
Delta-type opioid receptor, sequence (P41143 whole entry): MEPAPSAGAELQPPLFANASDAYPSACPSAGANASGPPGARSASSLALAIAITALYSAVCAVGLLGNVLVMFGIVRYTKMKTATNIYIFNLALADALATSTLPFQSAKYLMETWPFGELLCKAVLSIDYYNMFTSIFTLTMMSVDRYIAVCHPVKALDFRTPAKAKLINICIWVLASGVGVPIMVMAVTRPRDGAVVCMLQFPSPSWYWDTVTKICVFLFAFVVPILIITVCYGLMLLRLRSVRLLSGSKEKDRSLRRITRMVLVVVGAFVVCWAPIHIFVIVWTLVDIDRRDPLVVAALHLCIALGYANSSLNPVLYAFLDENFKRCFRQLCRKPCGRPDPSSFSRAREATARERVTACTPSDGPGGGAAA
Adenosine receptor A2a, sequence (P29274 whole entry): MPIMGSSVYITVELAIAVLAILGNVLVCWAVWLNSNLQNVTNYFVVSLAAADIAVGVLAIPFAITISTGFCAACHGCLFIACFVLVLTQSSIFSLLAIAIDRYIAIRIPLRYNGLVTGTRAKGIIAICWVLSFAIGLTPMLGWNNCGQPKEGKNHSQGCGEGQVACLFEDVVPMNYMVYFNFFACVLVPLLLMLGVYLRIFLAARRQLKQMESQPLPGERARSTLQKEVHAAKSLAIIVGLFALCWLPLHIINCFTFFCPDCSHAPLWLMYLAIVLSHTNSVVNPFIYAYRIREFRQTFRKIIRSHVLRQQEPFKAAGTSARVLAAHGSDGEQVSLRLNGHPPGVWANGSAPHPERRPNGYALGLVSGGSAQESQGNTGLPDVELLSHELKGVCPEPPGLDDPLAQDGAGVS

Row | Structure (SMILES) | AC50 (Adenosine receptor A2a) | AC50 [1] | AC50 [2] | AC50 [3] | AC50 [4] | AC50 [5] | AC50 (Histamine H2 receptor) | AC50 [6] | AC50 [7] | AC50 [8] | AC50 [9] | AC50 (Thromboxane A2 receptor) | AC50 [10] | AC50 [11]
1 | O=C(O)C[C@H](O)C[C@H](O)/C=C/c1c(C2CC2)nc2ccccc2c1-c1ccc(F)cc1 [PITAVASTATIN] | > 30 µM | > 30 µM | > 30 µM | > 10 µM | > 10 µM | > 10 µM | > 10 µM | > 10 µM | > 30 µM | > 10 µM | > 30 µM | > 10 µM | > 10 µM | > 30 µM
2 | CCCC(C)C1(CC)C(=O)NC(=O)NC1=O (stereo unspecified) [PENTOBARBITAL] | > 10 µM | > 10 µM | > 10 µM | > 10 µM | > 10 µM | > 10 µM | > 30 µM | > 10 µM | > 10 µM | > 10 µM | 19 µM | > 10 µM | > 10 µM | > 30 µM
3 | O=C(O)CCCCCCCC(=O)O [AZELAIC ACID] | > 10 µM | > 10 µM | > 10 µM | > 10 µM | > 10 µM | > 10 µM | > 30 µM | > 10 µM | > 10 µM | > 10 µM | > 30 µM | > 10 µM | > 10 µM | > 30 µM
4 | C=CCC1(C(C)CC)C(=O)NC(=O)NC1=O (stereo unspecified) [TALBUTAL] | > 10 µM | > 10 µM | > 10 µM | > 10 µM | > 10 µM | > 10 µM | > 10 µM | > 10 µM | > 10 µM | > 10 µM | > 30 µM | > 10 µM | > 10 µM | > 30 µM
5 | COC(=O)[C@H]1[C@H]2C[C@@H]3c4[nH]c5cc(OC)ccc5c4CCN3C[C@H]2C[C@@H](OC(=O)/C=C/c2cc(OC)c(OC)c(OC)c2)[C@@H]1OC [RESCINNAMINE] | > 30 µM | > 10 µM | > 10 µM | > 10 µM | > 10 µM | > 10 µM | > 30 µM | > 10 µM | > 10 µM | > 10 µM | > 30 µM | > 10 µM | > 30 µM | > 30 µM
6 | C[C@H](N)[C@H](O)c1cccc(O)c1 [METARAMINOL] | > 10 µM | 14.3 µM | > 10 µM | > 10 µM | > 10 µM | > 10 µM | > 30 µM | > 10 µM | 35 µM | 7.4 µM | > 30 µM | > 10 µM | > 10 µM | > 30 µM
7 | CCCC(=O)O[C@]1(C(=O)CO)CC[C@H]2[C@@H]3CCC4=CC(=O)CC[C@]4(C)[C@H]3[C@@H](O)C[C@@]21C [HYDROCORTISONE BUTYRATE] | > 10 µM | > 10 µM | > 10 µM | > 10 µM | > 10 µM | > 10 µM | > 10 µM | > 10 µM | > 10 µM | > 10 µM | > 30 µM | > 10 µM | > 10 µM | > 30 µM
8 | O=C(O)[C@H](CC(=O)N1C[C@H]2CCCC[C@H]2C1)Cc1ccccc1 [MITIGLINIDE] | > 10 µM | > 10 µM | > 10 µM | > 10 µM | > 10 µM | > 10 µM | > 10 µM | > 10 µM | > 10 µM | > 10 µM | > 30 µM | > 10 µM | > 10 µM | > 30 µM
9 | C=CCC1(CC(C)C)C(=O)NC(=O)NC1=O [BUTALBITAL] | > 10 µM | > 10 µM | > 30 µM | > 10 µM | > 10 µM | > 10 µM | > 30 µM | > 10 µM | > 10 µM | > 10 µM | > 30 µM | > 10 µM | > 10 µM | > 30 µM
